Test results reported in patent publication US20250270227A1, “CAMPTOTHECIN DERIVATIVE, AND PHARMACEUTICAL COMPOSITION AND USE THEREOF” (SIMCERE ZAIMING PHARMACEUTICAL CO., LTD., priority 2021, published 2025).
Read-outs that look alike come from different tables or passages of the source.

What was measured:
[1] = Plasma protein binding rate (equilibrium dialysis); assay type: in vitro ADME, mouse; details: pH 7.4
Method: The protein binding rates of the compounds of the present disclosure in human and mouse plasma were determined by the following experimental method.
• 1. Human plasma (BioIVT), CD-1 mouse plasma (BiolVT) • 2. Na2HPO4 (Sigma S5136-500G) • 3. NaH2PO4 (Sigma 53139-500G) • 4. NaCl (Sigma S5886-IKG) • 5. 96-well equilibrium dialysis plate (HTDialysis LLC, Gales Ferry, CT, HTD96B) and equilibrium dialysis membrane (MWCO 12-14K, 1101) • 6. Positive control compound warfarin • 7. ABI QTrap 5500 liquid chromatography-mass spectrometry
• 1. Preparation of a buffer with a concentration of 100 mM sodium phosphate and 150 mM NaCl: An alkaline solution with a concentration of 14.2 g/L Na2HPO4 and 8.77 g/L NaCl was prepared with ultrapure water, and an acidic solution with a concentration of 12.0 g/L NaH2PO4 and 8.77 g/L NaCl was prepared with ultrapure water. Then the alkaline solution was titrated to pH 7.4 with the acidic solution to prepare a buffer with a concentration of 100 mM sodium phosphate and 150 mM NaCl. • 2. Preparation of dialysis membrane: The dialysis membrane was soaked in ultrapure water for 60 min to separate the membrane into two pieces, then soaked in 20% ethanol for 20 min, and finally soaked in a buffer used for dialysis for 20 min. • 3. Preparation of plasma: The frozen plasma was quickly thawed at room temperature, and then centrifuged at 3220 g for 10 min at 4° C. to remove clots, and the supernatant was collected into a new centrifugal tube. The pH of the plasma was determined and recorded, and the plasma with pH of 7-8 was used. • 4. Preparation of compound-containing plasma samples: The 10 mM stock solution of the compound of the present invention or the positive control compound was diluted with DMSO to obtain a 200 μM working solution. To 597 μl of human or mouse plasma was added 3 μl of 200 μM compound working solution to obtain a plasma sample with a final concentration of 1 μM. • 5. […]
The peak areas of the compound on the buffer side and the plasma side were determined. […]

[2] = Metabolic stability in liver microsomes; assay type: in vitro ADME, mouse; details: for half-life at 1 μM: CD-1, mouse, microsomes
Method: (§1) The metabolic stability of the compounds of the present disclosure in liver microsomes was determined by the following experimental method.
(§2) • 1. Human liver microsomes (Corning 452117), Beagle dog liver microsomes (XENOTECH D1000), SD rat liver microsomes (XENOTECH R1000) and CD-1 mouse liver microsomes (XENOTECH M1000) • 2. Na2HPO4 (Tianjin Guangfu Fine Chemical Research Institute 20180130) • 3. KH2PO4 (Tianjin Guangfu Fine Chemical Research Institute 20180920) • 4. MgCl2 (Tianjin Guangfu Fine Chemical Research Institute 20191216) • 5. NADPH (Solarbio 1216C022) • 6. Positive control compound verapamil (Sigma MKBV4993V) • 7. AB Sciex API4000 liquid chromatography-mass spectrometry
(§3) • 1. Preparation of 100 mM phosphate buffered saline (PBS): 7.098 g of Na2HPO4 was weighed, 500 mL of pure water was added and subjected to ultrasonic dissolution to obtain solution A. 3.400 g of KH2PO4 was weighed, 250 mL of pure water was added and subjected to ultrasonic dissolution to obtain solution B. Solution A was placed on a stirrer and solution B was slowly added until the pH value reached 7.4 to prepare 100 mM PBS buffer. • 2. Preparation of reaction system
(§4) The reaction system was prepared according to the following table:
(§5) • 3. The reaction system was placed in a 37° C. water bath and pre-incubated for 10 min. 40 μL of 10 mM NADPH solution (NADPH was dissolved in 100 mM phosphate buffer) was added to the reaction system with the final concentration of NADPH being 1 mM. 40 μL of phosphate buffer was used instead of NADPH solution as negative control. The role of the negative control was to exclude the effect of the chemical stability of the compounds themselves. • 4. 4 μL of 100 μM compound of the present disclosure and the positive control compound verapamil were added to the reaction system to initiate the reaction, with the final concentration of the compound being 1 μM. • 5. After thorough mixing on a vortex oscillator, 50 μL of the incubated sample was taken out at 0.5 min, 15 min, 30 min, 45 min and 60 min, respectively, and the reaction was stopped with 200 μL of glacial acetonitrile containing internal standard. The sample was centrifuged at 3220 g for 45 min. […]
(§6) All the data was calculated by the Microsoft Excel software. The peak area was detected by extracting the ion chromatogram. The in vitro half-life (t1/2) of the compound was determined by performing linear fitting of the natural logarithm of elimination percent of the compound and time.
(§7) The in vitro half-life (t1/2) was calculated by means of the slope k: […]
(§8) The in vitro intrinsic clearance (unit: μL/min/mg protein) was calculated using the following equation: […]

[3] = Metabolic stability in liver microsomes; assay type: in vitro ADME, human; details: for half-life at 1 μM: human, microsomes
Method: as §1, §2, §3, §4, §5, §6, §7, §8

[4] = CD-1 mouse plasma, 1 μM, equilibrium dialysis 6 h, 37° C., read-out: % Mouse plasma protein binding rate (converted)
[5] = pH 7.4, mouse liver microsomes 0.5 mg/mL, 1 μM compound, 1 mM NADPH, 37° C., read-out: Stability in mouse liver microsomes t1/2
[6] = pH 7.4, human liver microsomes 0.5 mg/mL, 1 μM compound, 1 mM NADPH, 37° C., read-out: Stability in human liver microsomes t1/2

Row | SMILES | fraction unbound at 6 h, 1 μM [1, 4] | half-life at 1 μM [2, 5] [h] | half-life at 1 μM [3, 6] [h] | other results
1 | [2H]C1([2H])Oc2cc3nc4c(c(CNC(=O)C(O)C5CC5)c3cc2O1)Cn1c-4cc2c(c1=O)COC(=O)[C@]2(O)CC (stereo partly drawn) [Compound 39, 2-cyclopropyl-N-(((S)-7-ethyl-7-hydroxy-8,11-dioxo-7,8,11,13-tetrahydro-10H-[1,3]dioxolo[4,5-g]pyrano[3′,4′:6,7]indolizino[1,2-b]quinolin-14-yl-2,2-d2)methyl)-2-hydroxyacetamide] | 0.342 | 4.47 | 4.01 | 
2 | CC[C@@]1(O)C(=O)OCc2c1cc1n(c2=O)Cc2c-1nc1cc3c(cc1c2CNC(=O)C(O)C1CC1)OCO3 (single isomer, unassigned) [Compound 14-P2] |  |  |  | Stability in mouse liver microsomes t1/2 ([2]; mouse liver microsomes 0.5 mg/mL, 1 μM compound, 1 mM NADPH, 37° C.): 1.08 h; Stability in human liver microsomes t1/2 ([3]; human liver microsomes 0.5 mg/mL, 1 μM compound, 1 mM NADPH, 37° C.): 0.835 h
3 | CC[C@@]1(O)C(=O)OCc2c1cc1n(c2=O)Cc2c-1nc1cc3c(c(F)c1c2CNC(=O)[C@@H](O)C1CC1)OCO3 (single isomer, unassigned) [Compound 37-P1] |  |  |  | fraction unbound at 6 h, 1 μM ([1]; CD-1, mouse, plasma): 0.327; half-life at 1 μM ([2]; pH 7.4): 2.23 h; half-life at 1 μM ([3]; pH 7.4): 1.75 h
4 | CC[C@@]1(O)C(=O)OCc2c1cc1n(c2=O)Cc2c-1nc1cc3c(cc1c2CNC(=O)C(O)C1CC1)OCO3 (single isomer, unassigned) [Compound 14-P1] | 0.363 | 1.21 | 1.1 | 
